Results as given in patent publication US7238716B2, “Alkanoic acid derivatives process for their production and use thereof” (Takeda Pharmaceuticals Company Limited, priority 2000, dated 2007).

Tested on: KKA^y mice
Assay: Total cholesterol lowering action and plasma anti-arteriosclerosis index enhancing action in mice (Test Example 2)
Assay type: in vivo
Settings: Mus musculus, po, 96 h, four days; for change in vivo at 0.005 % / change in vivo at 0.01 %: percent increase of [(HDL cholesterol/total cholesterol)×100] vs non-administration group; for change in vivo at 0.005 % / inhibition in vivo at 0.005 %: 0.005% in powdery diet; for inhibition in vivo at 0.005 % / inhibition in vivo at 0.01 %: percent reduction of plasma total cholesterol level vs non-administration group; for change in vivo at 0.01 % / inhibition in vivo at 0.01 %: 0.01% in powdery diet
Description: Test compounds were mixed in a powdery diet (CE-2, Japan Clea) the concentration of 0.01% (compounds of Examples 7, 26, 29 and 32) or 0.005% (compounds of Examples 1, 11, 15, 18, 24, 36, 37, 41, 48, 50, 51, 52, 58, 62, 79, 88, 91, 92, 93, 97, 107, 110, 129 and 130), and freely given to KKA^y mice (11 to 12 weeks old, 5 mice per group), a model of type-2 diabetes mellitus, for four days. During this period, water was given freely. Blood was sampled from orbital venous plexus and components were analyzed using the plasma separated from the blood. Total cholesterol levels were determined by using L type Wako Cholesterol (Wako Pure Chemical Industries, Ltd). Precipitation reagent for HDL cholesterol (Wako Pure Chemical Industries, Ltd.) was added to a part of the plasma to precipitate non-HDL lipoprotein, and cholesterol (HDL cholesterol) in the resulting supernatant was determined. The plasma anti-arteriosclerosis index [(HDL cholesterol/total cholesterol)×100] was calculated by using these cholesterol levels.
In the Table, “Total cholesterol lowering action (%)” represents the percent reduction (%) of total cholesterol level in the test compound administration group, when the total cholesterol level in the test compound non-administration group is taken as 100%. “Plasma anti-arteriosclerosis index-enhancing action (%)” represents the percent increase (%) of plasma anti-arteriosclerosis index in the test compound administration group, when the plasma anti-arteriosclerosis index in the test compound non-administration group is taken as 100%.

Structure (SMILES)	change in vivo at 0.005 % [%]	inhibition in vivo at 0.005 % [%]	change in vivo at 0.01 % [%]	inhibition in vivo at 0.01 % [%]
Cc1oc(-c2ccccc2)nc1COc1ccc(COc2cccc(CC(=O)O)c2)cc1 [Example 1, 2-[3-[4-[(5-methyl-2-phenyl-4-oxazolyl)methoxy]benzyloxy]phenyl]acetic acid]	11	7	–	–
CCOc1ccc(OCc2ccc(OCc3nc(-c4ccccc4)oc3C)cc2)cc1CCC(=O)O [Example 7, 3-[2-ethoxy-5-[4-[(5-methyl-2-phenyl-4-oxazolyl)methoxy]benzyloxy]phenyl]propionic acid]	–	–	15	17
Cc1oc(-c2ccccc2)nc1COc1ccc(COc2ccccc2CC(=O)O)cc1 [Example 11, 2-[2-[4-[(5-methyl-2-phenyl-4-oxazolyl)methoxy]benzyloxy]phenyl]acetic acid]	18	23	–	–
Cc1ccc(OCc2ccc(OCc3nc(-c4ccccc4)oc3C)cc2)c(CC(=O)O)c1 [Example 15, 2-[5-methyl-2-[4-[(5-methyl-2-phenyl-4-oxazolyl)methoxy]benzyloxy]phenyl]acetic acid]	4	25	–	–
Cc1oc(-c2ccccc2)nc1COc1ccc(COc2ccc(Cl)cc2CC(=O)O)cc1 [Example 18, 2-[5-chloro-2-[4-[(5-methyl-2-phenyl-4-oxazolyl)methoxy]benzyloxy]phenyl]acetic acid]	12	23	–	–
COc1ccc(OCc2ccc(OCc3nc(-c4ccccc4)oc3C)cc2)c(CC(=O)O)c1 [Example 24, 2-[5-methoxy-2-[4-[(5-methyl-2-phenyl-4-oxazolyl)methoxy]benzyloxy]phenyl]acetic acid]	17	10	–	–
CCOc1ccc(OCc2ccc(OCc3nc(-c4ccccc4)oc3C)cc2)c(CC(=O)O)c1 [Example 26, 2-[5-ethoxy-2-[4-[(5-methyl-2-phenyl-4-oxazolyl)methoxy]benzyloxy]phenyl]acetic acid]	–	–	16	20
CCOc1ccc(OCc2ccc(OCc3nc(-c4ccccc4)oc3C)cc2)c(CCC(=O)O)c1 [Example 29, 3-[5-ethoxy-2-[4-[(5-methyl-2-phenyl-4-oxazolyl)methoxy]benzyloxy]phenyl]propionic acid]	–	–	20	21
Cc1oc(-c2ccccc2)nc1COc1cccc(COc2cccc(CC(=O)O)c2)c1 [Example 32, 2-[[3-[3-(5-methyl-2-phenyl-4-oxazolyl)methoxy]benzyloxy]phenyl]acetic acid]	–	–	10	2
Cc1oc(-c2ccccc2)nc1COc1ccc(COc2ncccc2CC(=O)O)cc1 [Example 36, 2-[2-[4-[(5-methyl-2-phenyl-4-oxazolyl)methoxy]benzyloxy]-3-pyridyl]acetic acid]	34	19	–	–
Cc1oc(-c2ccccc2)nc1COc1ccc(COc2cccnc2CC(=O)O)cc1 [Example 37, 2-[3-[4-[(5-methyl-2-phenyl-4-oxazolyl)methoxy]benzyloxy]-2-pyridyl]acetic acid]	19	15	–	–
Cc1oc(-c2ccccc2)nc1COc1ccc(COc2ccccc2CC(=O)O)cn1 [Example 41, 2-[2-[[6-[(5-methyl-2-phenyl-4-oxazolyl)methoxy]-3-pyridyl]methoxy]phenyl]acetic acid]	28	25	–	–
COc1cc(COc2ccccc2CC(=O)O)ccc1OCc1nc(-c2ccccc2)oc1C [Example 48, 2-[2-[3-methoxy-4-[(2-phenyl-5-methyl-4-oxazolyl)methoxy]benzyloxy]phenyl]acetic acid]	20	17	–	–
Cc1oc(-c2ccco2)nc1COc1ccc(COc2ccccc2CC(=O)O)cc1 [Example 50, 2-[2-[4-[[2-(2-furyl)-5-methyl-4-oxazolyl]methoxy]benzyloxy]phenyl]acetic acid]	15	20	–	–
O=C(O)Cc1ccccc1OCc1ccc(OCc2csc(-c3ccccc3)n2)cc1 [Example 51, 2-[2-[4-[(2-phenyl-4-thiazolyl)methoxy]benzyloxy]phenyl]acetic acid]	22	24	–	–
Cc1sc(-c2ccccc2)nc1COc1ccc(COc2ccccc2CC(=O)O)cc1 [Example 52, 2-[2-[4-[(5-methyl-2-phenyl-4-thiazolyl)methoxy]benzyloxy]phenyl]acetic acid]	15	26	–	–
Cc1oc(-c2ccccc2)nc1CCOc1ccc(COc2ccccc2CC(=O)O)cc1 [Example 58, 2-[2-[4-[2-(5-methyl-2-phenyl-4-oxazolyl)ethoxy]benzyloxy]phenyl]acetic acid]	21	20	–	–
Cc1oc(-c2ccccc2)nc1COc1cc(COc2cccc(CC(=O)O)c2)ccn1 [Example 62, 2-[3-[2-[(5-methyl-2-phenyl-4-oxazolyl)methoxy]-4-pyridylmethoxy]phenyl]acetic acid]	15	9	–	–
Cc1oc(-c2ccccc2)nc1COc1cc(COc2ccccc2CC(=O)O)on1 [Example 79, 2-[2-[3-(5-methyl-2-phenyl-4-oxazolylmethoxy)-5-isoxazoly]methoxylphenyl]acetic acid]	42	39	–	–
Cc1oc(-c2ccccc2)nc1COc1ccc(COc2ncccc2CC(=O)O)cn1 [Example 88, 2-[2-[[6-[(5-methyl-2-phenyl-4-oxazolyl)methoxy]-3-pyridyl]methoxy]-3-pyridyl]acetic acid]	22	10	–	–
COc1cc(COc2ncccc2CC(=O)O)ccc1OCc1nc(-c2ccccc2)oc1C [Example 91, 2-[2-[3-methoxy-4-[(2-phenyl-5-methyl-4-oxazolyl)methoxy]benzyloxy]-3-pyridyl]acetic acid]	16	6	–	–
Cc1oc(-c2ccco2)nc1COc1ccc(COc2ncccc2CC(=O)O)cc1 [Example 92, 2-[2-[4-[[2-(2-furyl)-5-methyl-4-oxazolyl]methoxy]benzyloxy]-3-pyridyl]acetic acid]	23	15	–	–
Cc1sc(-c2ccccc2)nc1COc1ccc(COc2ncccc2CC(=O)O)cc1 [Example 93, 2-[2-[4-[(5-methyl-2-phenyl-4-thiazolyl)methoxy]benzyloxy]-3-pyridyl]acetic acid]	17	16	–	–
Cc1oc(-c2ccccc2)nc1CCc1ccc(COc2ccccc2CC(=O)O)cc1 [Example 97, 2-[2-[4-[2-(5-methyl-2-phenyl-4-oxazolyl)ethyl]benzyloxy]phenyl]acetic acid]	27	27	–	–
Cc1oc(-c2ccccc2)nc1CCc1noc(COc2ccccc2CC(=O)O)n1 [Example 107, 2-[2-[[3-[2-(5-methyl-2-phenyl-4-oxazolyl)ethyl]-1,2,4-oxadiazol-5-yl]methoxy]phenyl]acetic acid]	9	13	–	–
Cc1ccc(CC(=O)O)c(OCc2ccc(OCc3nc(-c4ccccc4)oc3C)cc2)n1 [Example 110, 2-[6-methyl-2-[4-[(5-methyl-2-phenyl-4-oxazolyl)methoxy]benzyloxy]-3-pyridyl]acetic acid]	24	21	–	–
Cc1oc(-c2ccccc2)nc1COc1cc(COc2ncccc2CC(=O)O)on1 [Example 129, 2-[2-[[3-[(5-methyl-2-phenyl-4-oxazolyl)methoxy]-5-isoxazolyl]methoxy]-3-pyridyl]acetic acid]	25	14	–	–
Cc1oc(-c2ccc3ccccc3c2)nc1COc1ccc(COc2ncccc2CC(=O)O)cc1 [Example 130, 2-[2-[4-[5-methyl-2-(2-naphthyl)-4-oxazolylmethoxy]benzyloxy]-3-pyridyl]acetic acid]	15	16	–	–
